According to patent US20150366813A1, “LIQUID-FILLED IMMEDIATE RELEASE SOFT GELATIN CAPSULES” (Banner Life Sciences LLC, priority 2014, published 2015):
Counter-ions that a name gives are not always drawn.

Experiment: Particle size distribution of micronized and non-micronized dabigatran etexilate mesylate
Assay type: physicochemical
Conditions: DEM particle diameter distribution
From the text: Examples of dabigatran etexilate mesylate particle size useful for the pharmaceutical composition described herein are shown in Table 9. The distribution of dabigatran etexilate mesylate particle sizes is set forth by the diameter distribution in either micronized or non-micronized samples. The dissolution of micronized and non-micronized dabigatran etexilate mesylate particles was studied using the matrix fill corresponding to DEM A as shown in Table 8 encapsulated in a hard gelatin capsule.

Row | Structure (SMILES) | Particle size D(v, 0.1) | Particle size D(v, 0.5) | Particle size D(v, 0.9)
1 | CCCCCCOC(=O)N=C(N)c1ccc(NCc2nc3cc(C(=O)N(CCC(=O)OCC)c4ccccn4)ccc3n2C)cc1 [Non-micronized, dabigatran etexilate mesylate] | 4.7 μm | 20.8 μm | 50.1 μm
2 | CCCCCCOC(=O)N=C(N)c1ccc(NCc2nc3cc(C(=O)N(CCC(=O)OCC)c4ccccn4)ccc3n2C)cc1 [Micronized, dabigatran etexilate mesylate] | 1.5 μm | 4.2 μm | 10.5 μm
